Laboratory results as given in the supplement of paper PMC10307832.

What was measured:
Assay in all cases: relative viability (nuclei count vs DMSO), 5 days (fraction); higher = more cells survive
SK-LU-1 = system: SK-LU-1
In short: (§1)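 For relative viability, nuclei counts in treated wells were divided by those in vehicle wells. Lung cancer cell lines had been pin-tool dosed in 1536-well plates the day after seeding and cultured for 5 days, then fixed and stained in one step (final 0.05% Triton X-100, 1% formaldehyde, 1 ug/ml Hoechst) and imaged at 4×. Doses were one drug alone or a fixed anchor-drug dose plus five library-drug doses (not always all listed) in √10 steps, and values are duplicate-plate medians.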

NCI-H2228 = system: NCI-H2228
In short: as §1

LOU-NH91 = system: LOU-NH91
In short: as §1

NCI-H661 = system: NCI-H661
In short: as §1

NCI-H2170 = system: NCI-H2170
In short: as §1

LC-2-ad = system: LC-2-ad
In short: as §1

NCI-H596 = system: NCI-H596
In short: as §1

SK-MES-1 = system: SK-MES-1
In short: as §1

NCI-H1395 = system: NCI-H1395
In short: as §1

BEN = system: BEN
In short: as §1

NCI-H2087 = system: NCI-H2087
In short: as §1

NCI-H1734 = system: NCI-H1734
In short: as §1

NCI-H2405 = system: NCI-H2405
In short: as §1

NCI-H2342 = system: NCI-H2342
In short: as §1

NCI-H647 = system: NCI-H647
In short: as §1

HARA = system: HARA
In short: as §1

EKVX = system: EKVX
In short: as §1

HCC-827 = system: HCC-827
In short: as §1

NCI-H1355 = system: NCI-H1355
In short: as §1

HCC-366 = system: HCC-366
In short: as §1

NCI-H2009 = system: NCI-H2009
In short: as §1

NCI-H1437 = system: NCI-H1437
In short: as §1

With C=C1C(=O)O[C@@H](CCCCCCCC)[C@@H]1C(=O)O [C-75] + COc1cc2c(Oc3ccc(NC(=O)C4(C(=O)Nc5ccc(F)cc5)CC4)cc3F)ccnc2cc1OCCCN1CCOCC1 [Foretinib] (partner 0.25 µM) the relative viability (SK-LU-1; first compound 0.08 µM) was 0.794, the relative viability (SK-LU-1; first compound 0.253 µM) was 0.721 and the relative viability (SK-LU-1; first compound 0.8 µM) was 0.881. The relative viability (SK-LU-1; first compound 2.53 µM) was 0.736, the relative viability (SK-LU-1; first compound 8 µM) was 0.766 and the relative viability (NCI-H2228; first compound 0.08 µM) was 0.803. The relative viability (NCI-H2228; first compound 0.253 µM) was 0.919, the relative viability (NCI-H2228; first compound 0.8 µM) was 0.85 and the relative viability (NCI-H2228; first compound 2.53 µM) was 0.839. The relative viability (NCI-H2228; first compound 8 µM) was 0.863, the relative viability (LOU-NH91; first compound 0.08 µM) was 0.938 and the relative viability (LOU-NH91; first compound 0.253 µM) was 0.873. It also gave a relative viability (LOU-NH91; first compound 0.8 µM) of 0.903, a relative viability (LOU-NH91; first compound 2.53 µM) of 0.914 and a relative viability (LOU-NH91; first compound 8 µM) of 0.948. It also gave a relative viability (NCI-H661; first compound 0.08 µM) of 1.06, a relative viability (NCI-H661; first compound 0.253 µM) of 1.01 and a relative viability (NCI-H661; first compound 0.8 µM) of 0.998. The relative viability (NCI-H661; first compound 2.53 µM) was 0.901, the relative viability (NCI-H661; first compound 8 µM) was 0.896 and the relative viability (NCI-H2170; first compound 0.08 µM) was 1.06. The relative viability (NCI-H2170; first compound 0.253 µM) was 1.01, the relative viability (NCI-H2170; first compound 0.8 µM) was 0.987 and the relative viability (NCI-H2170; first compound 2.53 µM) was 0.591. It also gave a relative viability (NCI-H2170; first compound 8 µM) of 0.986, a relative viability (LC-2-ad; first compound 0.08 µM) of 0.937 and a relative viability (LC-2-ad; first compound 0.253 µM) of 0.8. It also gave a relative viability (LC-2-ad; first compound 0.8 µM) of 0.859, a relative viability (LC-2-ad; first compound 2.53 µM) of 0.724 and a relative viability (LC-2-ad; first compound 8 µM) of 0.889. For the same molecule, the relative viability (NCI-H596; first compound 0.08 µM) was 0.878, the relative viability (NCI-H596; first compound 0.253 µM) was 1.01 and the relative viability (NCI-H596; first compound 0.8 µM) was 0.871. The relative viability (NCI-H596; first compound 2.53 µM) was 1, the relative viability (NCI-H596; first compound 8 µM) was 0.869 and the relative viability (SK-MES-1; first compound 0.08 µM) was 1.06. It also gave a relative viability (SK-MES-1; first compound 0.253 µM) of 0.773, a relative viability (SK-MES-1; first compound 0.8 µM) of 0.978 and a relative viability (SK-MES-1; first compound 8 µM) of 0.925. For the same molecule, the relative viability (NCI-H1395; first compound 0.08 µM) was 0.894, the relative viability (NCI-H1395; first compound 0.253 µM) was 1.02 and the relative viability (NCI-H1395; first compound 0.8 µM) was 0.948. For the same molecule, the relative viability (NCI-H1395; first compound 2.53 µM) was 1.03, the relative viability (NCI-H1395; first compound 8 µM) was 1.13 and the relative viability (BEN; first compound 0.08 µM) was 0.712. The relative viability (BEN; first compound 0.253 µM) was 0.671, the relative viability (BEN; first compound 0.8 µM) was 0.547 and the relative viability (BEN; first compound 8 µM) was 0.478. For the same molecule, the relative viability (NCI-H2087; first compound 0.08 µM) was 1.15, the relative viability (NCI-H2087; first compound 0.253 µM) was 1.07 and the relative viability (NCI-H2087; first compound 0.8 µM) was 0.943. For the same molecule, the relative viability (NCI-H2087; first compound 2.53 µM) was 0.725, the relative viability (NCI-H2087; first compound 8 µM) was 0.891 and the relative viability (NCI-H1734; first compound 0.08 µM) was 0.942. The relative viability (NCI-H1734; first compound 0.253 µM) was 0.819, the relative viability (NCI-H1734; first compound 0.8 µM) was 0.78 and the relative viability (NCI-H1734; first compound 2.53 µM) was 0.476. For the same molecule, the relative viability (NCI-H1734; first compound 8 µM) was 0.748, the relative viability (NCI-H2405; first compound 0.08 µM) was 1.05 and the relative viability (NCI-H2405; first compound 0.253 µM) was 1. The relative viability (NCI-H2405; first compound 0.8 µM) was 1.05, the relative viability (NCI-H2405; first compound 2.53 µM) was 0.882 and the relative viability (NCI-H2405; first compound 8 µM) was 1.05. For the same molecule, the relative viability (NCI-H2342; first compound 0.08 µM) was 1.11, the relative viability (NCI-H2342; first compound 0.253 µM) was 1.13 and the relative viability (NCI-H2342; first compound 0.8 µM) was 1.04. It also gave a relative viability (NCI-H2342; first compound 2.53 µM) of 0.923, a relative viability (NCI-H2342; first compound 8 µM) of 1.17 and a relative viability (NCI-H647; first compound 0.08 µM) of 1.23. The relative viability (NCI-H647; first compound 0.253 µM) was 1.12, the relative viability (NCI-H647; first compound 0.8 µM) was 0.998 and the relative viability (NCI-H647; first compound 2.53 µM) was 1.18. For the same molecule, the relative viability (NCI-H647; first compound 8 µM) was 0.97, the relative viability (HARA; first compound 0.08 µM) was 0.822 and the relative viability (HARA; first compound 0.253 µM) was 0.93. It also gave a relative viability (HARA; first compound 0.8 µM) of 0.819, a relative viability (HARA; first compound 2.53 µM) of 0.769 and a relative viability (HARA; first compound 8 µM) of 0.979. It also gave a relative viability (EKVX; first compound 0.08 µM) of 0.644, a relative viability (EKVX; first compound 0.253 µM) of 0.925 and a relative viability (EKVX; first compound 0.8 µM) of 0.782. For the same molecule, the relative viability (EKVX; first compound 8 µM) was 1.06, the relative viability (HCC-827; first compound 0.08 µM) was 1.02 and the relative viability (HCC-827; first compound 0.253 µM) was 1.05. For the same molecule, the relative viability (HCC-827; first compound 0.8 µM) was 1.04, the relative viability (HCC-827; first compound 2.53 µM) was 0.965 and the relative viability (HCC-827; first compound 8 µM) was 0.945. For the same molecule, the relative viability (NCI-H1355; first compound 0.08 µM) was 0.948, the relative viability (NCI-H1355; first compound 0.253 µM) was 0.892 and the relative viability (NCI-H1355; first compound 0.8 µM) was 0.972. It also gave a relative viability (NCI-H1355; first compound 2.53 µM) of 0.927, a relative viability (NCI-H1355; first compound 8 µM) of 0.958 and a relative viability (HCC-366; first compound 0.08 µM) of 0.909. The relative viability (HCC-366; first compound 0.253 µM) was 0.961, the relative viability (HCC-366; first compound 0.8 µM) was 0.877 and the relative viability (HCC-366; first compound 8 µM) was 0.845. For the same molecule, the relative viability (NCI-H2009; first compound 0.08 µM) was 1.21, the relative viability (NCI-H2009; first compound 0.253 µM) was 1.2 and the relative viability (NCI-H2009; first compound 0.8 µM) was 1.12. The relative viability (NCI-H2009; first compound 2.53 µM) was 1.13, the relative viability (NCI-H2009; first compound 8 µM) was 1.04 and the relative viability (NCI-H1437; first compound 0.08 µM) was 1.27. The relative viability (NCI-H1437; first compound 0.253 µM) was 1.45, the relative viability (NCI-H1437; first compound 0.8 µM) was 1.28 and the relative viability (NCI-H1437; first compound 2.53 µM) was 1.13. For the same molecule, the relative viability (NCI-H1437; first compound 8 µM) was 1.23.
